US4748161A, “Triterpenyl esters of organic acids and hypolipidemic agents composed of them” (Amano Pharmaceutical Co., Ltd., priority 1984, dated 1988)
Where two headings read alike, the source gives them in different places.

Tests used:
[1] = Body weight of rats in method B; parameters: species or system male Wistar strain rats; details: rat, in vivo
Description: (§1) Male Wistar strain rats (100±1 g, each 8 rats were formed into a group except that the control group fed with a hyperlipidemic diet was formed of 16 rats) were used as test animals. A powdery diet (CE-2, supplied by Clea Japan, Inc.) was used as ordinary diet. The hyperlipidemic diet was prepared by fortifying the ordinary diet with cholesterol (1%) and cholic acid (0.5%). Each test compound (1%) for administration was admixed with the hyperlipidemic diet. Each two rats were kept in a cage and given the prescribed diet and water ad libitum. Thus the rats were fed for 4 weeks at a constant temperature of 23±1° C. and a constant R.H. of 55±5%. Finally, the rats were fasted from food except water for 16 hours (from 4 p.m. of the 28th test day to 8 a.m. of the 29th test day), and under anesthesia with pentbarbital sodium (tradename: Nembutal), blood was taken from each rat through the descending abdominal arota. Then, TC, HDL-C, TG, PL, and LPO in the serum were measured in the following manner.

[2] = test system: serum lipids and serum lipid hydroperoxide; assay: Pharmacological test method B for anti-hyperlipidemic activity (serum lipids, 4 weeks feeding); format: in vivo, male Wistar strain rats; parameters: AI Diff.: unit not given here; details: for AI [(TC - HDL-C)/(HDL-C)] / HDL-C in serum / LPO in serum / PL in serum / TC in serum / TG in serum: 1% in hyperlipidemic diet, 4 weeks; for change in vivo at 1 % in diet: Rattus norvegicus, po, 672 h; for change in vivo at 1 % in diet / AI Diff. / HDL-C Diff. / LPO Diff. / PL Diff. / TC % of diff. / TC Diff. / TG Diff.: versus control group; for HDL-C rise compared with normal diet group: versus normal diet group
Description: Pharmacological test method B for anti-hyperlipidemic acitivity (the term "method B" was used in the present specification)
as §1
A TC kit-K (supplied by Nippon Shoji Kaisha, Ltd.) was used. The principle of this determination is as follows: The ester of cholesterol in the serum is hydrolyzed with cholesterol-ester hydrolase into free cholesterol and fatty acids. All the free cholesterol is oxidized with cholesterol oxydase to form Δ^4 -cholestenone and hydrogen peroxide. Phenol and 4-aminoantipyrin are oxidatively condensed together by the formed hydrogen peroxide and peroxydase. The produced red quinone coloring matter is measured by colorimetry for absorbance at 500 nm using a spectrophotometer, thereby determining the TC:
The color-developing liquid (3.0 ml) is well mixed with the sample serum (0.02 ml). The mixture once heated at 37° C. for 15 minutes, is measured for absorbance at 500 nm with a spectrophotometer. The found absorbance is denoted by EA. On the other hand, the color-developing liquid (3.0 ml) is well mixed with the standard solution. The mixture is treated and measured for absorbance at 500 nm in the same manner as the above. This found absorbance is denoted by ES. Both EA and ES are determined with reference to the value of the blank test conducted using the color-developing liquid (3.0 ml) alone. [formula]
An HDL-C kit-N (supplied by Nippon Shoji Kaisha, Ltd.) was used. […] (VLDL) and lo density lipoprotein (LDL) in the serum is precipitated by the action of heparin. The precipitate is separated by centrifugation. High density lipoprotein (HDL) is dissolved in the separated supernatant. Esters of cholesterol in this fraction is hydrolyzed with cholesterol-ester hydrolase into free cholesterol and fatty acids. All the free cholesterol is oxidized with cholesterol oxydase to form Δ^4 -cholestenone and hydrogen peroxide. Phenol and 4-aminoantipyrine are oxidatively condensed together by the formed hydrogen peroxide and peroxydase. The produced red quinone coloring matter is measured by colorimetry for absorbance at 500 nm using a spectrophotometer, thereby determining the HDL-C.
A PL kit-K (supplied by Nippon Shoji Kaisha, Ltd.) was used for the determination. Lecithin, sphingomyelin, and lysolecithin are decomposed by phospholipase D into choline and phosphatidic acid, N-acylsphingosyl phosphate, or lysophosphatidic acid, respectively. The resulting choline is quantitatively decomposed by choline oxydase into hydrogen peroxide and betaine. With this hydrogen peroxide, and aid of peroxydase, phenol and 4-aminoantipyrin are condensed into red quinone pigment, then the absorbance at 500 nm of which is measured with a spectrophotometer, thereby determining the PL. […]

serum lipids = details: 0.2% in high cholesterol diet, cited from earlier work; for TG level lowering: not significant; for TC level lowering: significant

Structure (SMILES)	Body weight during feed period, 1st day [1] [g]	Body weight during feed period, 8th day [1] [g]	Body weight during feed period, 15th day [1] [g]	Body weight during feed period, 22nd day [1] [g]	Body weight during feed period, 28th day [1] [g]	Body weight just before blood sampling, 29th day [1] [g]	AI [(TC - HDL-C)/(HDL-C)] [2]	HDL-C in serum [2] [mg/dL]	LPO in serum [2] [nmol/mL]	PL in serum [2] [mg/dL]	TC in serum [2] [mg/dL]	TG in serum [2] [mg/dL]	further results
CCC(=Cc1ccc(O)c(OC)c1)C(=O)OC1CCC23CC24CCC2(C)C(C(C)CCC=C(C)C)CCC2(C)C4CCC3C1(C)C (stereo not drawn) [Example 120, cycloartenyl ester of 4-hydroxy-3-methoxy-α-ethylcinnamic acid]	105 ± 3.2	144 ± 9.4	191 ± 18.2	242 ± 15.7	272 ± 20.1	258 ± 23.0	7.260	24.6	2.06	105.3	203.2	53.0	change in vivo at 1 % in diet ([2]; read-out: AI % of diff.): -66.6%; change in vivo at 1 % in diet ([2]; read-out: HDL-C % of diff.): 82.2%; change in vivo at 1 % in diet ([2]; read-out: LPO % of diff.): -27%; change in vivo at 1 % in diet ([2]; read-out: PL % of diff.): -24.8%; change in vivo at 1 % in diet ([2]; read-out: TG % of diff.): -6.2%; AI Diff. [2]: -14.5; HDL-C Diff. [2]: +11.1 mg/dl; LPO Diff. [2]: -0.76 nmol/mL; PL Diff. [2]: -34.8 mg/dL; TC % of diff. [2]: -33.9%; TC Diff. [2]: -104.1 mg/dL; TG Diff. [2]: -3.5 mg/dL
C=C(CCC(C)C1CCC2(C)C3CCC4C(C)(C)C(OC(=O)C(C)=Cc5ccc(O)c(OC)c5)CCC45CC35CCC12C)C(C)C (stereo not drawn) [Example 118, 24-methylenecycloartanyl ester of 4-hydroxy-3-methoxy-α-methylcinnamic acid]	106 ± 3.4	147 ± 9.2	192 ± 17.8	243 ± 15.4	274 ± 18.4	259 ± 20.4	1.943	47.4	2.08	98.3	139.5	51.4	change in vivo at 1 % in diet ([2]; read-out: AI % of diff.): -91.9%; change in vivo at 1 % in diet ([2]; read-out: HDL-C % of diff.): 251%; change in vivo at 1 % in diet ([2]; read-out: LPO % of diff.): -26.2%; change in vivo at 1 % in diet ([2]; read-out: PL % of diff.): -29.8%; change in vivo at 1 % in diet ([2]; read-out: TG % of diff.): -9%; AI Diff. [2]: -19.82; HDL-C Diff. [2]: +33.9 mg/dl; LPO Diff. [2]: -0.74 nmol/mL; PL Diff. [2]: -41.8 mg/dL; TC % of diff. [2]: -54.6%; TC Diff. [2]: -168.2 mg/dL; TG Diff. [2]: -5.1 mg/dL; HDL-C rise compared with normal diet group [2]: remarkable rises
CCOc1cc(C=C(C)C(=O)OC2CCC34CC35CCC3(C)C(C(C)CCC(C)=C(C)C)CCC3(C)C5CCC4C2(C)C)ccc1O (stereo not drawn) [Example 140, cyclobranyl ester of 3-ethoxy-4-hydroxy-α-methylcinnamic acid]	105 ± 3.6	147 ± 9.5	194 ± 17.2	246 ± 15.8	273 ± 18.7	261 ± 15.6	2.602	54.8	2.02	98.0	197.4	52.4	change in vivo at 1 % in diet ([2]; read-out: AI % of diff.): -88%; change in vivo at 1 % in diet ([2]; read-out: HDL-C % of diff.): 306%; change in vivo at 1 % in diet ([2]; read-out: LPO % of diff.): -28.4%; change in vivo at 1 % in diet ([2]; read-out: PL % of diff.): -30%; change in vivo at 1 % in diet ([2]; read-out: TG % of diff.): -7.3%; AI Diff. [2]: -19.16; HDL-C Diff. [2]: +41.3 mg/dl; LPO Diff. [2]: -0.80 nmol/mL; PL Diff. [2]: -42.1 mg/dL; TC % of diff. [2]: -35.8%; TC Diff. [2]: -109.9 mg/dL; TG Diff. [2]: -4.1 mg/dL; HDL-C rise compared with normal diet group [2]: remarkable rises
COc1cc(/C=C/C(=O)O)ccc1O [ferulic acid, 4-hydroxy-3-methoxycinnamic acid]													TG level lowering (serum lipids): 18.7%; TC level lowering (serum lipids): 10.8%; PL level lowering (serum lipids): scarcely observed
CCOc1ccc(N)cc1C=CC(=O)OC1CCC23CC24CCC2(C)C(C(C)CCC=C(C)C)CCC2(C)C4CCC3C1(C)C (stereo not drawn) [Example 183, Cycloartenyl ester of 5-amino-2-ethoxycinnamic acid]	105 ± 3.9	142 ± 8.8	189 ± 11.9	239 ± 16.5	268 ± 20.9	257 ± 18.8	7.356	29.2	2.08	125.7	244.0	65.2	
COc1ccc(N)cc1C(=O)OC1CCC23CC24CCC2(C)C(C(C)CCC(C)=C(C)C)CCC2(C)C4CCC3C1(C)C (stereo not drawn) [Example 173, cyclobranyl ester of 5-amino-2-methoxybenzoic acid]	105 ± 3.6	142 ± 10.5	190 ± 18.2	240 ± 23.5	271 ± 24.2	258 ± 23.6	3.671	58.4	2.23	127.2	272.8	65.2	HDL-C rise compared with normal diet group [2]: remarkable rises
O=C(O)/C=C/c1ccc(O)cc1 [p-coumaric acid]													TG level lowering (serum lipids): 19.8%; TC level lowering (serum lipids): 9.4%; PL level lowering (serum lipids): scarcely observed
COc1cc(C(=O)O)ccc1O [vanillic acid]													decrease of TC, TG, or PL level (serum lipids): no decrease
O=C(O)/C=C/c1ccc(O)c(O)c1 [caffeic acid]													decrease of TC, TG, or PL level (serum lipids): no decrease
O=C(O)C=Cc1ccccc1 [cinnamic acid]													decrease of TC, TG, or PL level (serum lipids): no decrease
COc1cc(C=C(C)C(=O)OC2CCC34CC35CCC3(C)C(C(C)CCC=C(C)C)CCC3(C)C5CCC4C2(C)C)ccc1N (stereo not drawn) [Example 189, Cycloartenyl ester of 4-amino-3-methoxy-α-methylcinnamic acid]	104 ± 3.8	142 ± 8.1	188 ± 12.6	239 ± 20.6	268 ± 22.7	256 ± 20.2	4.071	35.4	2.05	115.0	179.5	58.4	
